This is an account of results in ChEMBL document CHEMBL1201862, “PubChem BioAssay data set” (2004).

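Cells were grown in 96-well plates and exposed to each compound for 48 hours at five concentrations; endpoints were interpolated linearly between bracketing concentrations, or set to the highest concentration if not reached. The concentration for 50% growth inhibition is given as GI50.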 The source made the active and inactive calls. Rule as the data show it: active = GI50 up to about 1.1 µM and inactive = higher.

What all share (experiment): growth of human tumour cells (NCI), 48 h
Test [1] concerns A549.
Test [2] deals with CCRF-CEM.
The subject of test [3] is HCT-15.
In test [4] the test system is HL-60.
Test [5] concerns IGROV-1.
For test [6], the system named is K562.
For test [7], the system named is LOX IMVI.
In test [8] the test system is MOLT-4.
The subject of test [9] is OVCAR-3.
Test [10] has as its system OVCAR-8.
Test [11] relates to RXF 393.
The test system of test [12] is SF-268.
The subject of test [13] is SF-295.
Test [14] deals with SK-MEL-28.
Test [15] has as its system SK-MEL-2.
Test [16] has as its system SNB-19.
For test [17], the system named is U-251.
Test [18] concerns UACC-257.
Test [19] deals with UO-31.
Test [20] deals with SR.

With `Cn1/c(=N\S(=O)(=O)c2ccccc2)n(S(=O)(=O)c2ccccc2)c2ccccc21`, the GI50 is 47.5 µM (inactive) in test [1]; 24.7 µM (inactive) in [2]; greater than 100 µM in test [3]; 0.598 µM (active) in [4]; > 100 µM (inactive) in test [5]; 39.9 µM (inactive) in [6]. The GI50 was > 100 µM (inactive) in test [7]; 42.9 µM (inactive) in test [8]; 36.2 µM (inactive) in test [9]; 56.1 µM (inactive) in test [10]; 95.5 µM (inactive) in test [11]; 54.1 µM (inactive) in [12]. The GI50 in [13] was 62.1 µM (inactive); in [14] it was > 100 µM (inactive); in [15] it was 34.4 µM (inactive); in test [16], 89.3 µM (inactive); in test [17], 34.7 µM (inactive); in test [18] it was > 100 µM (inactive). Besides, the GI50 in [19] was 34.7 µM (inactive).
In the case of `O=C1/C(=C/c2cccc([N+](=O)[O-])c2)COc2ccccc21`, the GI50 was 41.2 µM (inactive) in [1]; 1.53 µM (inactive) in test [2]; 1.55 µM in [3]; 2.08 µM (inactive) in test [4]; 7.85 µM (inactive) in [5]; 1.46 µM (inactive) in [6]. The GI50 in test [7] was 1.8 µM (inactive); in [8] it was 2.31 µM (inactive); in test [9], 2.79 µM (inactive); in [10] it was 2.84 µM (inactive); in test [11], 4.65 µM (inactive); in [12] it was 8.99 µM (inactive). In addition, the GI50 in [13] was 11.2 µM (inactive); in test [14] it was 2.92 µM (inactive); in [15], 6.1 µM (inactive); in test [16], 2.82 µM (inactive); in test [17] it was 2.62 µM (inactive); in test [18], 7.69 µM (inactive). Moreover, in test [19], the GI50 is 15.2 µM (inactive).
Regarding `CCOC(=O)C1=C(Nc2ccc(NC3=C(C(=O)OCC)C(=O)CS3)cc2)SCC1=O`, the GI50 in test [1] was 30.3 µM (inactive); in test [2], 29.8 µM (inactive); in test [3], 18.5 µM; in test [4] it was 32.7 µM (inactive); in test [5], 24.3 µM (inactive); in [6] it was 30.5 µM (inactive). Also, the GI50 in [7] is 14.2 µM (inactive); in test [9], 36.7 µM (inactive); in test [10], 27 µM (inactive); in test [11], 16 µM (inactive); in test [12] it was 22 µM (inactive); in [13], 26.5 µM (inactive). Further, the GI50 is 16.8 µM (inactive) in [14]; 16.5 µM (inactive) in test [15]; 32.2 µM (inactive) in [16]; 25.2 µM (inactive) in [17]; 22.7 µM (inactive) in test [18]; 17.5 µM (inactive) in test [19].
As for `C=CC[C@@H]1C(=O)[C@@]2(O[Si](C(C)C)(C(C)C)C(C)C)CC[C@@H]1C[C@H]2NC(=O)OCC(Cl)(Cl)Cl`, the GI50 in test [1] was > 100 µM (inactive); in test [2], 60 µM (inactive); in [3], 91.6 µM; in [6], 61.8 µM (inactive); in test [7] it was 41.5 µM (inactive); in test [8], > 100 µM (inactive). Also, the GI50 is 90.8 µM (inactive) in test [9]; > 100 µM (inactive) in [10]; > 100 µM (inactive) in test [12]; 5.35 µM (inactive) in test [13]; > 100 µM (inactive) in [14]; 60 µM (inactive) in [15]. For the same molecule, the GI50 in test [16] was > 100 µM (inactive); in test [20], 35.4 µM (inactive); in [17], > 100 µM (inactive); in test [18], 43.8 µM (inactive); in test [19], 56.5 µM (inactive).
Take `CC1(C)CC(=O)C(=CNC(N)=S)C(=O)C1`: the GI50 is > 100 µM (inactive) in test [1]; > 100 µM (inactive) in test [2]; greater than 100 µM in [3]; > 100 µM (inactive) in test [4]; > 100 µM (inactive) in test [5]; > 100 µM (inactive) in test [7]. The GI50 in test [8], in test [9], in [10], in test [11], in test [12] and in [13] was > 100 µM (inactive) each time. The GI50 in [14], in test [15], in [16], in test [17], in test [18] and in [19] was > 100 µM (inactive) in each case.
Regarding `CC(C)[C@H](NC(=O)[C@H](N)Cc1ccc(N(CCCl)CCCl)cc1)C(=O)O`, the GI50 in test [1] was > 100 µM (inactive); in [2], 78.7 µM (inactive); in [3], greater than 100 µM; in test [4], > 100 µM (inactive); in test [5] it was > 100 µM (inactive); in test [6], > 100 µM (inactive). For the same molecule, the GI50 in test [7] is > 100 µM (inactive); in test [8] it was 29.3 µM (inactive); in [9], > 100 µM (inactive); in test [10], > 100 µM (inactive); in test [11] it was > 100 µM (inactive); in test [12], > 100 µM (inactive). Also, the GI50 in test [13], in test [14], in test [15], in test [16], in test [17] and in [18] was > 100 µM (inactive) each time. Also, the GI50 in [19] is > 100 µM (inactive).
For `COc1cc(C(=O)CC2(O)C(=O)Nc3c(Cl)cc(Cl)cc32)ccc1O` (configuration not stated), the GI50 in test [1] is 55 µM (inactive); in [2], 36.6 µM (inactive); in test [3] it was 64 µM; in test [4], 36.2 µM (inactive); in [6], 35.5 µM (inactive); in [7] it was > 100 µM (inactive). The GI50 was 26.3 µM (inactive) in test [8]; 46.3 µM (inactive) in test [9]; 63 µM (inactive) in test [10]; 27.5 µM (inactive) in test [11]; 43.8 µM (inactive) in test [12]; 69.2 µM (inactive) in test [13]. In addition, the GI50 in test [14] was > 100 µM (inactive); in test [15] it was 87.1 µM (inactive); in test [16] it was 76.7 µM (inactive); in test [17], 69 µM (inactive); in [18] it was 43.6 µM (inactive); in [19], 37.9 µM (inactive).
On to `CCc1cc2c(cc1C(=O)CCC(=O)O)CC1(C2)Cc2cc(CC)c(C(=O)CCC(=O)O)cc2C1`, for which the GI50 in test [1] is > 100 µM (inactive); in test [2] it was 32.2 µM (inactive); in test [3], greater than 100 µM; in test [4] it was > 100 µM (inactive); in [5] it was > 100 µM (inactive); in test [6] it was 91.2 µM (inactive). The GI50 in [7] was > 100 µM (inactive); in test [8] it was > 100 µM (inactive); in test [9] it was > 100 µM (inactive); in [10], > 100 µM (inactive); in test [11], > 100 µM (inactive); in test [12], 82.4 µM (inactive). Also, the GI50 in test [13] is > 100 µM (inactive); in test [14], 35.6 µM (inactive); in test [15], 99.8 µM (inactive); in test [16], > 100 µM (inactive); in test [17] it was > 100 µM (inactive); in test [18] it was > 100 µM (inactive). In test [19], the GI50 was > 100 µM (inactive).
